Source: patent publication US8980226B2, “Aerosolized fosfomycin/aminoglycoside combination for the treatment of bacterial respiratory infections” (Gilead Sciences, Inc., priority 2004, dated 2015)
Like-named read-outs stand apart in the source and are kept apart here.

Columns and labels:
Assay type in all cases: cell-based
[1] = test system: B. cepacia; assay: MIC, agar-plate dilution method
Experimental: (§1) “Minimal inhibitory concentration (MIC)” means the lowest concentration of antibiotic (s) that prevents visible growth after incubation for 18-20 hours at 35° C.
(§2) The efficacy of antibiotics and antibiotic combinations against Gram-positive and Gram-negative bacteria representative of species that cause respiratory infections in patients with cystic fibrosis, bronchiectasis, sinusitis, and ventilator-associated pneumonia were evaluated in MIC assays. P. aeruginosa strains were isolated from lung sputum samples collected from cystic fibrosis patients, blood cultures, respiratory tract infections, and skin or soft tissue infections. E. coli, H. influenzae, B. cepacia, S. maltophilia, K. pneumoniae, M. catarrhalis, S. aureus, S. pneumoniae, S. pyogenes, and E. faecalis were isolated from respiratory tract infections. E. coli ATCC 25922, P. aeruginosa ATCC 27853, and S. aureus ATCC 29213 were used as quality control stains.
(§3) The MICs of fosfomycin alone, tobramycin alone, or combinations of fosfomycin plus tobramycin were determined by the agar-plate dilution method according to NCCLS guidelines (NCCLS, 2003). Bacterial strains were streaked onto Trypic Soy Agar plates (PML Microbiologicals, Wilsonville, Oreg.) containing 5% defibrinated sheep blood (hereafter referred to as blood agar plates) and incubated overnight at 35° C. Two to three bacterial colonies from the overnight cultures were inoculated into 3 mL of sterile normal saline, vortexed briefly, and adjusted to a 0.5 McFarland standard (NCCLS, 2003). The bacterial suspension was diluted 1:40 in sterile normal saline and served as the inoculum. Mueller-Hinton agar plates (hereafter referred to as MHA) were prepared by combining 16 g of agarose (Becton-Dickinson, Sparks, Md.), 22 g of Mueller-Hinton broth powder (Becton-Dickinson, Sparks, Md.), and adjusted to 1 L with distilled water. The agar was sterilized by autoclaving, cooled to 55° C., and supplemented with 25 μg/mL of glucose-6-phosphate (Sigma-Aldrich, St. Louis, Mo.). Twenty-five mL of cooled agar was aliquoted into 50 mL conical tubes and supplemented with appropriate concentrations of antibiotic to achieve concentrations ranging from 0.06 μg/mL to 512 μg/mL. After gently mixing the agar and antibiotic, the suspension was poured into sterile 100 mm petri dishes and allowed to solidify at room temperature. The antibiotic agar plates were inoculated with approximately 2×10^4 CFU/spot with a 48-point inoculator (Sigma-Aldrich, St. Louis, Mo.). The MIC was defined as the lowest concentration of antibiotic (s) that prevented visible growth after incubation for 18-20 hours at 35° C. The efficacy of a particular antibiotic or antibiotic combination on large populations of P. aeruginosa was determined by calculating the MIC50 and MIC90 values. The MIC50 value was defined as the concentration of antibiotic(s) which inhibited 50% of the P. aeruginosa strains. The MIC90 value was defined as the concentration of antibiotic(s) which inhibited 90% of the P. aeruginosa strains (Wiedemann and Grimm, 1996).

[2] = test system: E. coli; assay: MIC, agar-plate dilution method; conditions: Escherichia coli
Experimental: as §1, §2, §3

[3] = test system: E. faecalis; assay: MIC, agar-plate dilution method; conditions: Enterococcus faecalis
Experimental: as §1, §2, §3

[4] = test system: H. influenzae; assay: MIC, agar-plate dilution method
Experimental: as §1, §2, §3

[5] = test system: K. pneumoniae; assay: MIC, agar-plate dilution method
Experimental: as §1, §2, §3

[6] = test system: M. catarrhalis; assay: MIC, agar-plate dilution method
Experimental: as §1, §2, §3

[7] = test system: P. aeruginosa; assay: MIC, agar-plate dilution method; conditions: Pseudomonas aeruginosa
Experimental: as §1, §2, §3

[8] = test system: S. aureus; assay: MIC, agar-plate dilution method
Experimental: as §1, §2, §3

[9] = test system: S. maltophilia; assay: MIC, agar-plate dilution method; conditions: Stenotrophomonas maltophilia
Experimental: as §1, §2, §3

[10] = test system: S. pneumoniae; assay: MIC, agar-plate dilution method; conditions: Streptococcus pneumoniae
Experimental: as §1, §2, §3

[11] = test system: S. pyogenes; assay: MIC, agar-plate dilution method; conditions: Streptococcus pyogenes
Experimental: as §1, §2, §3

[12] = test system: P. aeruginosa COR-014; assay: Multistep resistance analysis (continuous serial passage); conditions: for MIC: Pseudomonas aeruginosa
Experimental: A single colony of P. aeruginosa COR-014 was inoculated into 5 mL of MHCAB and briefly vortexed. Two-fold serial dilutions of fosfomycin alone covering the range of 1 μg/mL-512 μg/mL, tobramycin alone covering 0.0625 μg/mL-512 μg/mL, and a 9:1 fosfomycin:tobramycin combination covering 0.0625 μg/mL-512 μg/mL were made in CAMHB. Ten microliters of bacterial suspension was pipetted into 3 mL of each antibiotic dilution and incubated statically at 35° C. for 18-24 hours. Tubes with the highest concentration of antibiotic having visible bacterial growth were selected from each antibiotic dilution series and 100 μl of the culture was pipeted into a fresh antibiotic dilution series. Tubes were incubated statically at 35° C. for 18-24 hours. This process was repeated for a total of 28 times. MICs of fosfomycin alone, tobramycin alone, and fosfomycin plus tobramycin were determined for the parent strain and resistant isolates collected after each passage as described in Example 5, Method C.

[13] = Haemophilus influenzae, H. influenzae COR-042, read-out: MIC
[14] = Klebsiella pneumoniae, K. pneumoniae COR-042, read-out: MIC
[15] = Moraxella catarrhalis, M. catarrhalis COR-109, read-out: MIC
[16] = P. aeruginosa COR-003, read-out: MIC
[17] = P. aeruginosa COR-021, read-out: MIC
[18] = Staphylococcus aureus, S. aureus COR-051 (MSSA), read-out: MIC
[19] = Staphylococcus aureus, S. aureus COR-055 (MRSA), read-out: MIC
[20] = S. maltophilia COR-083, read-out: MIC
[21] = 28 days of continuous exposure, clinical P. aeruginosa strain
[22] = COR014, 168 h, read-out: MIC 7d
[23] = COR014, 336 h, read-out: MIC 14d
[24] = COR014, 504 h, read-out: MIC 21d
[25] = COR014, 672 h, read-out: MIC 28d
[26] = COR014, read-out: MIC of the parent strain

Row | SMILES | MIC ([2]; E. coli COR-032) | MIC ([2]; E. coli COR-039) | MIC ([2]; E. coli COR-040) | MIC ([3]; E. faecalis COR-099) | MIC ([3]; E. faecalis COR-103) | MIC [4, 13] | MIC [5, 14] | MIC ([6]; M. catarrhalis COR-113) | MIC [6, 15] | MIC [7, 16] | MIC [7, 17] | MIC [8, 18] | MIC [8, 19] | MIC [9] | MIC [9, 20] | MIC ([10]; S. pneumoniae COR-061) | MIC ([10]; S. pneumoniae COR-068) | MIC ([11]; S. pyogenes COR-104) | MIC ([11]; S. pyogenes COR-105) | MIC ([12]; COR014, 0 h, read-out: MIC 0d) | other results
1 | NC[C@H]1O[C@H](O[C@H]2[C@H](O)[C@@H](O[C@H]3O[C@H](CO)[C@@H](O)[C@H](N)[C@H]3O)[C@H](N)C[C@@H]2N)[C@H](N)C[C@@H]1O [Tobramycin] | 0.5 µg/mL | 0.25 µg/mL | 32 µg/mL | 512 µg/mL | 8 µg/mL | 0.5 µg/mL | 0.5 µg/mL | 8 µg/mL | 8 µg/mL | 0.5 µg/mL | 64 µg/mL | 0.25 µg/mL | 0.25 µg/mL | 128 µg/mL | 512 µg/mL | 64 µg/mL | 16 µg/mL | 32 µg/mL | 64 µg/mL | 0.5 µg/mL | MIC ([1]; Burkholderia cepacia, B. cepacia COR-090): 128 µg/mL; MIC ([1]; Burkholderia cepacia, B. cepacia COR-098, read-out: MIC): 64 µg/mL; MIC ([4]; H. influenzae COR-049): 0.5 µg/mL; MIC ([5]; K. pneumoniae COR-049): 0.5 µg/mL; MIC ([7]; P. aeruginosa COR-009, read-out: MIC): 2050 µg/mL; MIC ([7]; P. aeruginosa COR-027, read-out: MIC): 0.5 µg/mL; MIC ([8]; Staphylococcus aureus, S. aureus COR-059): 128 µg/mL; MIC ([8]; Staphylococcus aureus, S. aureus COR-060 (GISA), read-out: MIC): 64 µg/mL; MIC ([9]; S. maltophilia COR-082, read-out: MIC): 4 µg/mL; increase in MIC on continuous exposure [12, 21]: 128 fold; MIC [12, 22]: 0.5 µg/mL; MIC [12, 23]: 0.5 µg/mL; MIC [12, 24]: 32 µg/mL; MIC [12, 25]: 64 µg/mL; MIC [12, 26]: 0.5 µg/mL
2 | C[C@@H]1O[C@@H]1P(=O)(O)O [Fosfomycin] | 1 µg/mL | 64 µg/mL | 1 µg/mL | 32 µg/mL | 32 µg/mL | 8 µg/mL | 8 µg/mL | 4 µg/mL | 4 µg/mL | 16 µg/mL | 8 µg/mL | 1 µg/mL | 4 µg/mL | 128 µg/mL | 64 µg/mL | 32 µg/mL | 8 µg/mL | 64 µg/mL | 16 µg/mL | 16 µg/mL | MIC ([1]; B. cepacia COR-098): ≧2048 μg/mL; MIC ([1]; Burkholderia cepacia, B. cepacia COR-090, read-out: MIC): ≥ 2050 µg/mL; MIC ([4]; Haemophilus influenzae, H. influenzae COR-049): 128 µg/mL; MIC ([5]; Klebsiella pneumoniae, K. pneumoniae COR-049): 128 µg/mL; MIC ([7]; P. aeruginosa COR-009): 1020 µg/mL; MIC ([7]; P. aeruginosa COR-027): 128 µg/mL; MIC ([8]; S. aureus COR-060 (GISA)): 2 µg/mL; MIC ([8]; Staphylococcus aureus, S. aureus COR-059, read-out: MIC): 2 µg/mL; MIC ([9]; S. maltophilia COR-087, read-out: MIC): ≥ 512 µg/mL; development of resistance on continuous exposure [12, 21]: rapid and dramatic development of resistance; MIC [12, 22]: > 512 µg/mL; MIC [12, 23]: > 512 µg/mL; MIC [12, 24]: > 512 µg/mL; MIC [12, 25]: > 512 µg/mL; MIC [12, 26]: 8 µg/mL
